From US20240343722A1 (VIFOR (INTERNATIONAL) AG, priority 2021, published 2024) come the findings set out here.

Usually EC50 stands for the concentration at which the effect is half-maximal.

The target in the experiment is T1, ferroportin (Fpn) (Homo sapiens, UniProt Q9NP59).
T1 construct: expressed in transfected cells; host or cells: HEK-293 cell line #354 (derivative of HEK-293 Tet-ON Advanced)
T1 sequence (Q9NP59 1-571): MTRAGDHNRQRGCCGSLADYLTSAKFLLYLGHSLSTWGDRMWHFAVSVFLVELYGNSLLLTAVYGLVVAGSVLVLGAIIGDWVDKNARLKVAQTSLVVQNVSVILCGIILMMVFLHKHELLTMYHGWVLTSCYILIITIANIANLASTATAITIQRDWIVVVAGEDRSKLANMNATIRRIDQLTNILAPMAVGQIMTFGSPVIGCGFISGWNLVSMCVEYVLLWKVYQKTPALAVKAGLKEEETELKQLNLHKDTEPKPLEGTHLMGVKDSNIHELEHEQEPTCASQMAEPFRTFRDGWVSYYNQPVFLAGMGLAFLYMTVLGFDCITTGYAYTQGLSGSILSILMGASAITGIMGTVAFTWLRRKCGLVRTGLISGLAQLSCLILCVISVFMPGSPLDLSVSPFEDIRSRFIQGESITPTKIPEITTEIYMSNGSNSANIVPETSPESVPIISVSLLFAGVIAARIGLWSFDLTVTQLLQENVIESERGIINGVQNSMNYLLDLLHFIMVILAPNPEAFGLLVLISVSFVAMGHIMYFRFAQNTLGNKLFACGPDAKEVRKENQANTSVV
The experiment can be described thus: Inhibition of Ferroportin mediated Iron Export Activity in an Iron Response Assay (BLA reporter, HEK-293 cell line #354). In kind it is cell-based. As to conditions: HEK-293 cell line #354, BLA reporter blue/green fluorescence ratio, n=37; read-out: EC50 of hepcidin in the iron response assay. The text has this:
Intracellular iron levels are indirectly measured in this assay by monitoring the activity of a beta-lactamase (BLA) reporter gene fused to the human ferritin promoter and the associated iron regulatory element (IRE) contained within the 5′ untranslated region of the ferritin mRNA. Expression of ferroportin (Fpn) in such a cell line leads to iron efflux and lower iron levels as reflected by lower activity of the reporter gene. On the other hand, inhibition of Fpn-mediated iron efflux results in elevated cellular iron levels which is detected as increased reporter gene activity.

As for `CC[C@H](C)[C@@H]1NC(=O)[C@@H](NC(=O)[C@@H](NC(=O)[C@@H]2CCCN2C(=O)[C@H](Cc2ccccc2)NC(=O)[C@H](Cc2c[nH]cn2)NC(=O)[C@@H](NC(=O)[C@@H](N)CC(=O)O)[C@@H](C)O)[C@@H](C)CC)CSSC[C@@H](C(=O)N[C@@H](CCCCN)C(=O)N[C@H](C(=O)O)[C@@H](C)O)NC(=O)[C@@H]2CSSC[C@@H]3NC(=O)[C@@H]4CSSC[C@H](NC(=O)[C@H](Cc5ccccc5)NC1=O)C(=O)N[C@@H](CSSC[C@H](NC(=O)[C@H](CCCCN)NC(=O)[C@H](CO)NC(=O)[C@H](CCCNC(=N)N)NC(=O)[C@H](Cc1c[nH]cn1)NC3=O)C(=O)NCC(=O)N[C@@H](CCSC)C(=O)N2)C(=O)NCC(=O)N4` [hepcidin], the EC50 was roughly 96 nM.
